Assay: recombinant barcode read abundance after kanamycin selection (control-corrected) (log10(CPM+1)); higher = more efficient recombination; sequences stand for … in AGTGCAGAGAAAATCGGCCAGTTTTCTCTGCCTGCAGTCCGCATGCCGT…AGATTTATGCAGCGGACTGCCTTTCTCCCAAAGTGATAAACCGGACAGTATCATGGACCGGTTTTCCCGGTAATCCGTATTTGCAAGGTTGGTTTCACT; site = the 11-nt target
Procedure, shortened: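 In E. coli, a pooled library matched targets to IS621 bridge RNA target-binding loops and was introduced alongside a donor plasmid. Cells went onto chloramphenicol/ampicillin/kanamycin with 0.1 mM IPTG or onto chloramphenicol/ampicillin LB agar as control, in duplicate. Recombination efficiency, from recombinant-junction barcodes as counts per million, is averaged and control-corrected. It is reported as log10(CPM+1).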
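Also: IS621 recombinase and bridge RNA in Escherichia coli cells.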

## GACTTCCCTTGGGTTCTAACCTGTTGCAT (site GACTTACCTAT)
  recombinant barcode read abundance (log10): 0.352

## GACTTCCCTTGGGTTCTAACCTGTTGCAT (site GACTTCCCTAT)
  recombinant barcode read abundance (log10): 1.45

## GACTTCCCTTGGGTTCTAACCTGTTGCAT (site GACTTGCCTAT)
  recombinant barcode read abundance (log10): 0.0893

## GACTTCCCTTGGGTTCTAACCTGTTGCAT (site GACTTTCCTAT)
  recombinant barcode read abundance (log10): 0.0857

## GACTTGCCTTGGGTTCTAACCTGTTGCCT (site GACTTGACTAG)
  recombinant barcode read abundance (log10): 0.023

## GACTTGCCTTGGGTTCTAACCTGTTGCCT (site GACTTGCCTAG)
  recombinant barcode read abundance (log10): 0.816

## GACTTGCCTTGGGTTCTAACCTGTTGCCT (site GACTTGGCTAG)
  recombinant barcode read abundance (log10): 0.394

## GACTTGCCTTGGGTTCTAACCTGTTGCCT (site GACTTGTCTAG)
  recombinant barcode read abundance (log10): 0.217

## GACTTGTCTTGGGTTCTAACCTGTTGCGG (site GACTCATCTCC)
  recombinant barcode read abundance (log10): 0

## GACTTGTCTTGGGTTCTAACCTGTTGCGG (site GACTTGTCTCC)
  recombinant barcode read abundance (log10): 1.59

## GACTTTACTTGGGTTCTAACCTGTTGCCT (site GACGTTGCTAG)
  recombinant barcode read abundance (log10): 0.00775

## GACTTTACTTGGGTTCTAACCTGTTGCCT (site GACTTTACTAG)
  recombinant barcode read abundance (log10): 0.0133

## GAGAGTACTTGGGTTCTAACCTGTTGCAT (site GAGAGTACTAT)
  recombinant barcode read abundance (log10): 0.982

## GAGAGTACTTGGGTTCTAACCTGTTGCAT (site GAGCGTACTAT)
  recombinant barcode read abundance (log10): 0.16

## GAGAGTACTTGGGTTCTAACCTGTTGCAT (site GAGGGTACTAT)
  recombinant barcode read abundance (log10): 0.654

## GAGAGTACTTGGGTTCTAACCTGTTGCAT (site GAGTGTACTAT)
  recombinant barcode read abundance (log10): 0.0293

## GAGATCCCTTGGGTTCTAACCTGTTGCCT (site GAGATCCCTAG)
  recombinant barcode read abundance (log10): 2.03

## GAGATCCCTTGGGTTCTAACCTGTTGCCT (site GTGATCCCTAG)
  recombinant barcode read abundance (log10): 0.422

## GAGCCTCCTTGGGTTCTAACCTGTTGCAT (site ACCAGGACTCG)
  recombinant barcode read abundance (log10): 0.136

## GAGCCTCCTTGGGTTCTAACCTGTTGCAT (site GAGCCTCCTAT)
  recombinant barcode read abundance (log10): 1.81

## GAGCCTTCTTGGGTTCTAACCTGTTGCAG (site AAGCCTTCTCA)
  recombinant barcode read abundance (log10): 0.0383

## GAGCCTTCTTGGGTTCTAACCTGTTGCAG (site GAGCCTTCTCT)
  recombinant barcode read abundance (log10): 1.46

## GAGCGAGCTTGGGTTCTAACCTGTTGCAG (site GAGCGAGCTCA)
  recombinant barcode read abundance (log10): 0.578

## GAGCGAGCTTGGGTTCTAACCTGTTGCAG (site GAGCGAGCTCC)
  recombinant barcode read abundance (log10): 0.322

## GAGCGAGCTTGGGTTCTAACCTGTTGCAG (site GAGCGAGCTCG)
  recombinant barcode read abundance (log10): 0.175

## GAGCGAGCTTGGGTTCTAACCTGTTGCAG (site GAGCGAGCTCT)
  recombinant barcode read abundance (log10): 1.46

## GAGCGAGCTTGGGTTCTAACCTGTTGCAT (site GAGAGAGCTAT)
  recombinant barcode read abundance (log10): 0.0856

## GAGCGAGCTTGGGTTCTAACCTGTTGCAT (site GAGCGAGCTAT)
  recombinant barcode read abundance (log10): 1.94

## GAGCGAGCTTGGGTTCTAACCTGTTGCAT (site GAGGGAGCTAT)
  recombinant barcode read abundance (log10): 0.0637

## GAGCGAGCTTGGGTTCTAACCTGTTGCAT (site GAGTGAGCTAT)
  recombinant barcode read abundance (log10): 0.735

## GAGCGCACTTGGGTTCTAACCTGTTGCAG (site GAGCGCACTCC)
  recombinant barcode read abundance (log10): 0.27

## GAGCGCACTTGGGTTCTAACCTGTTGCAG (site GAGCGCACTCT)
  recombinant barcode read abundance (log10): 1.7

## GAGCGCTCTTGGGTTCTAACCTGTTGCTT (site GAGCGCTCTAA)
  recombinant barcode read abundance (log10): 1.22

## GAGCGCTCTTGGGTTCTAACCTGTTGCTT (site GAGCGCTCTCA)
  recombinant barcode read abundance (log10): 0.0723

## GAGCGCTCTTGGGTTCTAACCTGTTGCTT (site GAGCGCTCTGA)
  recombinant barcode read abundance (log10): 0.088

## GAGCGCTCTTGGGTTCTAACCTGTTGCTT (site GAGCGCTCTTA)
  recombinant barcode read abundance (log10): 0.269
